# Laboratory results as given in patent US6528041B2, “Process for the preparation of 1-Propyl-2, 4, 5-trimethoxybenzene from toxic β-asarone of acorus calamus or from crude calamus oil containing β-asarone” (Council of Scientific and Industrial Research, priority 2000, dated 2003).
# Experiments:
# [1] = tested on: [3H] raclopride binding sites; details: in vitro; cited from earlier work
# [2] = tested on: [3H] spiperone binding sites; details: in vitro; cited from earlier work
# [3] = tested on: albino mice; assay: acute toxicity test for maximum tolerance dose (MTD) as a single dose; type: in vivo; details: for maximum tolerant doses (MTD): albino mice (25±2 g), intraperitoneal single dose, observed for 24 hr
# Description: There has been a lot of research on the effect of the substituents and functional groups which make a substance toxic or eliminate the toxicity. Any chemical substance that is electrophilic or metabolized to electrophilic species are often quite toxic, because electrophilic substances can react covalently with nucleophilic substituents of cellular macromolecules such as DNA, RNA, enzymes and proteins. These irreversible covalent interactions with important cellular macromolecules interfere with the macromolecule's function and can lead to a variety of toxic effects including cancer, hepatotoxicity, reproductive toxicity and developmental toxicity. It has been realised that the side chain of β-asarone contains carbon-carbon double bond, which can be metabolized to epoxide. The epoxide so formed is highly electrophilic and is capable of interacting with biological tissues, and could therefore, be the reason for the toxicity of β-asarone. In view of the above fact, it was possible to reduce the toxicity of β-asarone by hydrogenating the side olefinic bond into 1-propyl-2,4,5-trimethoxybenzene having a single bond as a side chain. The toxicity of the reduced calamus oil as well as of 1-Propyl-2,4,5-trimethoxy-benzene was tested. Toxicity test was performed on albino mice (body weight 25±2 g). […] Where the initial pilot dose was lethal, the sample was diluted. This was the acute toxicity test for maximum tolerance dose (MTD) as a single dose. […] It must be noted that further reduction in toxicity is possible by further dilution as the odor intensity of 1-Propyl-2,4,5-trimethoxybenzene and reduced calamus oil is substantially stronger than both β-asarone and calamus oil.
# [4] = tested on: rats; details: cited from earlier work
# [5] = tested on: animals; details: cited from earlier work
# [6] = tested on: human lymphocytes; details: human lymphocytes in-vitro after metabolic activation; cited from earlier work
smiles,measurement,setting,value
"CCCc1cc(OC)c(OC)c(C(=O)NCC2CCCN2CC)c1O (stereo not drawn) [salicylamide derivative, 5,6-dimethoxy-N[(1-ethyl-2-pyrrolidinyl)methyl]-3-propylsalicylamide]",affinity for [3H] raclopride binding sites,[1],high and stereoselective affinity
same,affinity for [3H] spiperone binding sites,[2],high and stereoselective affinity
"CCCc1cc(OC)c(OC)cc1OC [1-Propyl-2,4,5-trimethoxybenzene]",toxicity relative to the unreduced starting material (times less toxic),"[3]; 1-Propyl-2,4,5-trimethoxybenzene vs β-asarone, reduced calamus oil vs calamus oil, from MTD in albino mice",nearly five times and five
same,maximum tolerant doses (MTD),[3],0.56 ml/kg b.w.
C/C=C/c1cc(OC)c(OC)cc1OC [α-Asarone],lethality,[4],fatal
"C/C=C\c1cc(OC)c(OC)cc1OC [β-asarone, cis-2,4,5-trimethoxy-1-propenylbenzene]",tumour induction,[5]; after oral administration,induce tumours in the duodenal region
same,carcinogenicity,"[5]; animals, higher percentage of β-asarone",carcinogenic
same,chromosome damaging effect,[6],chromosome damaging effect
same,maximum tolerant doses (MTD),[3],0.12 ml/kg b.w.
